In publication PMC5442318, “Hundreds of dual-stage antimalarial molecules discovered by a functional gametocyte screen” (Nature Communications, 2017):
pIC50: −log10 of the molar value. Read-outs that look alike come from different tables or passages of the source.

Assays:
HepG2 cells = experiment: HepG2 cytotoxicity assay; assay type: cell-based; conditions: mean
Outline: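 Post-incubation CellTiter-Glo luminescence; 30 min RT equilibration, 10 min RT stabilization before reading.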

[1] = system: P. falciparum stage V female gametocytes; experiment: P. falciparum female gametocyte activation assay (Pf FGAA), 24 h or 48 h preincubation, Pfs25 expression readout; assay type: cell-based, Plasmodium falciparum NF54; conditions: mean, read-out: Gametocytes mean Pf FGAA IC50
Outline: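 Purified stage V gametocytes from P. falciparum NF54 gametocyte cultures were exposed to compounds for 24 h or 48 h at 37 °C under 3% O2/5% CO2, then activated by temperature drop plus xanthurenic acid. Activated females were stained with Cy3-anti-Pfs25 (0.5 μg ml^−1) for 24 h at 26 °C and counted by high-content imaging; pIC50 by nonlinear regression.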

[2] = system: P. falciparum stages IV–V gametocytes; experiment: Gametocytocidal ATP-depletion assay (gametocyte ATP bioluminescence); assay type: cell-based, Plasmodium falciparum
Outline: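 Purified stage IV–V gametocytes (12,500/well) incubated with compound for 48 h at 37 °C under 3% O2/5% CO2. ATP measured by BacTiter-Glo luminescence as a viability surrogate; hits tested at 2 μM single concentration.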

[3] = system: P. falciparum asexual blood stages; conditions: read-out: Pf Asexual blood stages XC50, cited from earlier work
[4] = P. falciparum female gametocytes
[5] = TCAMS asexual blood stage data, ref 1 (Gamo, F. J. et al., Nature 465, 305-310, 2010)
[6] = TCAMS data, ref 1 (Gamo et al., 2010)

| Structure (SMILES) | HepG2 cells mean TOX50 (HepG2 cells; HepG2 cells) | pIC50 [1, 4] | Gametocytes mean ATP inhibition at 2µM [2] | pIC50 [3, 5] | HepG2 cells mean TOX50 (HepG2 cells) | pIC50 [1] | Gametocytes mean ATP inhibition at 2µM (%) [2] | pIC50 [3, 6] |
| --- | --- | --- | --- | --- | --- | --- | --- | --- |
| CC(C)(C)c1ccc(CN2CCC(CNC(=O)c3cc(-c4ccccc4F)cs3)C2)cc1.O=C(O)C(F)(F)F (stereo not drawn) [TCMDC-134443] | 9.30 µM | 6.08 | -4.04% | 6.25 |  |  |  |  |
| CC(C)(C)c1ccc(CN2CCC(CNC(=O)c3cc(-c4cccc(F)c4)cs3)C2)cc1.O=C(O)C(F)(F)F (stereo not drawn) [TCMDC-134444] | 6.61 µM | 5.88 | 0.99% | 6.05 |  |  |  |  |
| CC(C)(C)c1ccc(CN2CCC(CNC(=O)c3cc(-c4ccccc4Cl)cs3)C2)cc1.O=C(O)C(F)(F)F (stereo not drawn) [TCMDC-134445] | 6.17 µM | 6.00 | -16.96% | 6.07 |  |  |  |  |
| CC(C)(C)c1ccc(CN2CCC(CNC(=O)c3cc(-c4cccc(Cl)c4)cs3)C2)cc1.O=C(O)C(F)(F)F (stereo not drawn) [TCMDC-134446] | 7.42 µM | 6.00 | -13.17% | 5.94 |  |  |  |  |
| COc1cccc(-c2csc(C(=O)NCC3CCN(Cc4ccc(C(C)(C)C)cc4)C3)c2)c1.O=C(O)C(F)(F)F (stereo not drawn) [TCMDC-134447] | 5.78 µM | 6.19 | -7.16% | 5.93 |  |  |  |  |
| CCc1ccccc1-c1csc(C(=O)NCC2CCN(Cc3ccc(C(C)(C)C)cc3)C2)c1.O=C(O)C(F)(F)F (stereo not drawn) [TCMDC-134448] | 7.67 µM | 5.92 | -14.62% | 5.94 |  |  |  |  |
| CN(C)c1ccc(-c2csc(C(=O)NCC3CCN(Cc4ccc(C(C)(C)C)cc4)C3)c2)cc1.O=C(O)C(F)(F)F (stereo not drawn) [TCMDC-134449] | 7.24 µM | 6.22 | -20.17% | 6.00 |  |  |  |  |
| NCCCCNc1cc(-c2ccnc(Nc3cccc(Cl)c3)n2)ccn1 [TCMDC-134683] | 0.67 µM | 5.84 | -0.61% | 6.55 |  |  |  |  |
| COc1cccc(OC)c1CN1CCC(N(C)CCCCCCCCN2CCC(OC(=O)Nc3ccccc3-c3ccccc3)CC2)CC1 [TCMDC-134684] | 1.93 µM | 5.65 | 22.14% | 6.34 |  |  |  |  |
| COc1cccc(OC)c1CN1CCC(N(C)CCCCCCCCCN2CCC(OC(=O)Nc3ccccc3-c3ccccc3)CC2)CC1 [TCMDC-134690] | 1.91 µM | 5.88 | 15.06% | 6.49 |  |  |  |  |
| Cc1cccc(Nc2nc(N[C@@H]3CCCNC3)nc3cc[nH]c(=O)c23)c1.O=C(O)C(F)(F)F [TCMDC-134835] | 3.25 µM | 5.73 | -27.53% | 6.17 |  |  |  |  |
| NCCCNc1nc(Nc2ccc(C(F)(F)F)cc2F)c2c(=O)[nH]ccc2n1.O=C(O)C(F)(F)F [TCMDC-135056] | 9.30 µM | 5.80 | -14.04% | 5.98 |  |  |  |  |
| Fc1ccc(OC2CN(c3nccc(NCc4ccccc4Cl)n3)C2)cc1 [TCMDC-135110] | 83.45 µM | 5.28 | 44.31% | 6.05 |  |  |  |  |
| COc1ccccc1CNc1ccnc(N2CC(Oc3ccc(F)cc3)C2)n1 [TCMDC-135118] | 73.68 µM | 5.39 | 42.55% | 6.07 |  |  |  |  |
| CCn1c(Sc2ccc([N+](=O)[O-])c(C#N)c2)nnc1-c1cccc(Cl)c1 [TCMDC-135234] | 18.80 µM | 5.87 | 46.72% | 6.06 |  |  |  |  |
| Cc1occc1C(=O)Nc1nc(-c2ccccn2)nc2ccsc12 [TCMDC-135244] | >100 µM | 7.22 | 87.21% | 6.05 |  |  |  |  |
| CCn1c(-c2nonc2N)nc2c(-c3cc4ccccc4s3)ncc(C(=O)N3CCC(N)C3)c21.O=C(O)C(F)(F)F (stereo not drawn) [TCMDC-135281] | 1.00 µM | 6.35 | 66.75% | 6.06 |  |  |  |  |
| Cc1[nH]c(C)c(-c2ccc(CCc3ccc(F)cc3F)cc2)c(=O)c1Cl [TCMDC-135462] | >100 µM | 4.88 | 51.34% | 7.80 |  |  |  |  |
| CNCCNc1nccc(N2CCc3ncnc(Nc4ccc(OCc5cccc(F)c5)c(Cl)c4)c3C2)n1 [TCMDC-135478] | 5.62 µM | 5.78 | -9.54% | 6.70 |  |  |  |  |
| CC(C)N1CCN(C(CN2CCN(CCCOc3ccc(-c4ccccc4)cc3)CC2)c2ccc(F)cc2)CC1.Cl (stereo not drawn) [TCMDC-135497] | 2.29 µM | 5.85 | 6.50% | 6.17 |  |  |  |  |
| COc1ccc(-c2cnc3[nH]cc(-c4ccncc4)c3c2)cc1OC [TCMDC-135853] | 11.79 µM | 5.65 | 76.41% | 6.89 |  |  |  |  |
| COc1ccc2ccccc2c1CCCCN1CCN(CC(c2ccc(F)cc2)N2CCC2)CC1.O=C(O)C(F)(F)F (stereo not drawn) [TCMDC-135867] |  |  |  |  | 4.37 µM | 5.23 | -0.41% | 6.12 |
| COc1cc(/C=C(\C2=NC(=O)CS2)c2nc3cccnc3n2C)ccc1O [TCMDC-135917] |  |  |  |  | 21.14 µM | 6.14 | 48.81% | 6.00 |
| CCn1c(-c2nonc2N)nc2c(-c3cccc(NC(=O)Nc4ccc(C(F)(F)F)cc4)c3)ncc(OCCCN)c21.O=C(O)C(F)(F)F [TCMDC-136179] |  |  |  |  | 5.62 µM | 6.04 | -5.44% | 5.98 |
| CCn1c(-c2nonc2N)nc2c(-c3cccc(NC(=O)Nc4cccc(Cl)c4)c3)ncc(OCCCN)c21.O=C(O)C(F)(F)F [TCMDC-136193] |  |  |  |  | 80.36 µM | 5.93 | -8.58% | 6.03 |
| Cl.c1ccc2c(C3CCN(CCCCOc4ccc5c(c4)CCN(CC4CC4)CC5)CC3)c[nH]c2c1 [TCMDC-136244] |  |  |  |  | 5.15 µM | 5.94 | -6.50% | 6.01 |
| COc1ccc(Nc2nccc(-c3ccc4ccnc(NCCCCN)c4c3)n2)cc1 [TCMDC-136642] |  |  |  |  | 14.29 µM | 5.82 | 21.11% | 6.12 |
| Cc1cc(OCCN2CCCCC2)ccc1NC(=O)c1cccc2c(=O)n(Cc3ccc(Cl)cc3)cnc12 [TCMDC-136727] |  |  |  |  | 4.17 µM | 5.85 | 13.25% | 5.98 |
| CC(C)NCc1ccc(OCc2cccc(COc3ccc(CNC(C)C)cc3I)c2)c(I)c1.Cl [TCMDC-137259] |  |  |  |  | 1.64 µM | 5.88 | 81.19% | 7.05 |
| CCCCOc1ccc(CNCCCCCCNCc2ccc(OCCCC)c3ccccc23)c2ccccc12.CS(=O)(=O)O [TCMDC-137281] |  |  |  |  | 2.29 µM | 6.40 | 94.34% | 5.95 |
